What all share (format): cell-based
Data set [1] is described as follows: Cytotoxicity by XTT staining in the HBV efficacy assay. The conditions noted are these: human, HepG2.2.15 cells. As for the experimental part: HepG2.2.15 cells (100 μL) in RPMI1640 medium with 10% fetal bovine serum was added to all wells of a 96-well plate at a density of 1×10^4 cells per well and the plate was incubated at 37° C. in an environment of 5% CO2 for 24 hours. Following incubation, six ten-fold serial dilutions of test compound prepared in RPMI1640 medium with 10% fetal bovine serum were added to individual wells of the plate in triplicate. Six wells in the plate received medium alone as a virus only control. The plate was incubated for 6 days at 37° C. in an environment of 5% CO2. The culture medium was changed on day 3 with medium containing the indicated concentration of each compound. One hundred microliters of supernatant was collected from each well for analysis of viral DNA by qPCR and cytotoxicity was evaluated by XTT staining of the cell culture monolayer on the sixth day.
The 50% cytotoxic concentration for the test materials are derived by measuring the reduction of the tetrazolium dye XTT in the treated tissue culture plates. XTT is metabolized by the mitochondrial enzyme NADPH oxidase to a soluble formazan product in metabolically active cells. XTT solution was prepared daily as a stock of 1 mg/mL in PBS. Phenazine methosulfate (PMS) stock solution was prepared at 0.15 mg/mL in PBS and stored in the dark at −20° C. XTT/PMS solution was prepared immediately before use by adding 40 μL of PMS per 1 mL of XTT solution. Fifty microliters of XTT/PMS was added to each well of the plate and the plate incubated for 2-4 hours at 37° C. The 2-4 hour incubation has been empirically determined to be within linear response range for XTT dye reduction with the indicated numbers of cells for each assay. Adhesive plate sealers were used in place of the lids, the sealed plate was inverted several times to mix the soluble formazan product and the plate was read at 450 nm (650 nm reference wavelength) with a Molecular Devices SpectraMax Plus 384 spectrophotometer. Data were collected by Softmax 4.6 software and imported into an Excel spreadsheet for analysis.
In general terms: Tetrazolium dyes change colour on reduction, which living cells bring about.

Data set [2] in a line: Cytotoxicity (CC50) HepG2. The conditions noted are these: human, HepG2 cells.
Data set [3] in a line: Cytotoxicity (CC50) IEC-6. The conditions noted are these: rat, IEC-6 cells.
A short description of the next data set: Cytotoxicity (CC50) Vero. The conditions noted are these: African green monkey, Vero cells.
A further data set in a line: Cytotoxicity (CC50) A204. The conditions noted are these: human, A204 cells.
The nature of the next data set: Cytotoxicity (CC50) CEM. The conditions noted are these: human, CEM cells.
The nature of a further data set: Cytotoxicity (CC50) H9c. The conditions noted are these: rat, H9c cells.
Data set [4] can be described thus: Cytotoxicity (CC50) Huh-7. The conditions noted are these: human, Huh-7 cells.
Data set [5] is described as follows: Cytotoxicity (CC50) BxPC3. The conditions noted are these: human, BxPC3 cells.
The nature of another data set: Cytotoxicity (CC50) A549. The conditions noted are these: human, A549 cells.

As a reminder, the CC50 is the concentration that lowers cell viability or growth by half. Read a low CC50 as greater toxicity to the cells. As to `Cc1cn([C@H]2O[C@@H](CO)C(O)C2F)c(=S)[nH]c1=O` (stereo partly drawn) [EIDD-02333-1], the half-maximal cytotoxic concentration (CC50) at 6 days in data set [1] is over 100 µM.

As for `Cc1cn([C@H]2O[C@@H](CO[P@](=O)(N[C@@H](C)C(=O)OC(C)C)Oc3ccccc3)C(O)C2F)c(=S)[nH]c1=O` (stereo partly drawn) [EIDD-02334-1], the half-maximal cytotoxic concentration (CC50) at 6 days in [1] is over 100 µM.

Take `Cc1cn([C@H]2O[C@@H](CO[P@@](=O)(N[C@@H](C)C(=O)OC(C)C)Oc3ccccc3)[C@H](O[P@@](=O)(N[C@@H](C)C(=O)OC(C)C)Oc3ccccc3)[C@H]2F)c(=O)[nH]c1=O` [EIDD-02308]: the CC50 at 6 days in [1] is over 100 µM.

For the molecule `Cc1cn([C@H]2O[C@@H](CO)[C@H](O)[C@H]2F)c(=O)[nH]c1=O` [EIDD-02020, Clevudine, reference compound], the CC50 (in data set [2]; in data set [3]; in the data set “Cytotoxicity (CC50) Vero”; in “Cytotoxicity (CC50) A204”; in “Cytotoxicity (CC50) CEM”; in the data set “Cytotoxicity (CC50) H9c”) was over 400 µM in each case. Also, the half-maximal cytotoxic concentration (CC50) (in data set [4]; in [5]; in the data set “Cytotoxicity (CC50) A549”) was over 400 µM each time. The molecule also yielded a CC50 at 6 days in [1] of over 100 µM.

Take `Cc1cn([C@H]2O[C@@H](CO[P@](=O)(N[C@@H](C)C(=O)OC(C)C)Oc3ccccc3)[C@H](O)[C@H]2F)c(=O)[nH]c1=O` [EIDD-02174]: the CC50 was over 400 µM in [2]; 338 µM in data set [3]; over 400 µM in the data set “Cytotoxicity (CC50) Vero”; 374 µM in “Cytotoxicity (CC50) A204”; over 400 µM in “Cytotoxicity (CC50) CEM”; 311 µM in “Cytotoxicity (CC50) H9c”. Besides, the results for the cytotoxic concentration (CC50) (in [4]; in data set [5]; in the data set “Cytotoxicity (CC50) A549”) were 290 µM, over 400 µM and over 400 µM, respectively. The CC50 at 6 days in data set [1] is over 100 µM.

As to `Nc1ccn([C@@H]2CS[C@H](CO)O2)c(=O)n1` [3TC (Lamivudine), Lamivudine, reference compound], the CC50 in data set [2], in data set [4] and in data set [5] was over 400 µM in each case. This molecule also registered a 50% cytotoxic concentration (CC50) at 6 days in data set [1] of over 10 µM.

The molecule `Cc1cn([C@H]2O[C@@H](CO[P@@](=O)(N[C@@H](C)C(=O)OC(C)C)Oc3ccccc3)C(O)C2F)c(=S)[nH]c1=O` (stereo partly drawn) [EIDD-02335-1] had a cytotoxic concentration (CC50) at 6 days in [1] of over 100 µM.

In [1], `Cc1cn([C@H]2O[C@@H](CO[P@](=O)(N[C@@H](C)C(=O)OC(C)C)Oc3ccccc3)[C@H](O[P@](=O)(N[C@@H](C)C(=O)OC(C)C)Oc3ccccc3)[C@H]2F)c(=O)[nH]c1=O` [EIDD-02309] had a cytotoxic concentration (CC50) at 6 days of 85.1 µM.

Consider `Cc1cn([C@H]2O[C@@H](CO[P@@](=O)(N[C@@H](C)C(=O)OC(C)C)Oc3ccccc3)[C@H](O)[C@H]2F)c(=O)[nH]c1=O` [EIDD-02173], for which the CC50 in [2] was over 400 µM; in data set [3], 307 µM; in the data set “Cytotoxicity (CC50) Vero” it was over 400 µM; in the data set “Cytotoxicity (CC50) A204” it was 330 µM; in the data set “Cytotoxicity (CC50) CEM”, 140 µM; in the data set “Cytotoxicity (CC50) H9c”, 344 µM. For the same molecule, the CC50 (in [4]; in data set [5]; in the data set “Cytotoxicity (CC50) A549”) was over 400 µM each time. In data set [1], the 50% cytotoxic concentration (CC50) at 6 days was over 100 µM.

The record behind these values is patent US20220280542A1, “PHOSPHORAMIDATES FOR THE TREATMENT OF HEPATITIS B VIRUS” (priority 2016, published 2022).
